{"source": "patent US20050201949A1", "about": "“Pharmaceutical formulations” (priority 2003, published 2005)", "origin": "cited, not measured here", "details": "solid tablets with a lactose excipient; Maillard reaction postulated", "note": "Where a name gives a salt, the structure may show the parent alone."}
{"molecule": "CNCCC(Oc1ccc(C(F)(F)F)cc1)c1ccccc1", "note": "(stereo not shown) [fluoxetine hydrochloride]", "values": [{"measurement": "Degradation in the presence of lactose excipient", "value": "undergoes degradation"}]}
